Test results published in ChEMBL document CHEMBL4382216, “Asymmetric synthesis and biological evaluation of imidazole- and oxazole-containing synthetic lipoxin A4 mimetics (sLXms)” (Eur J Med Chem, 2019).
Active and inactive are the calls of the source. The calls are words filed in the database; no cut-off is given here.

Legend:
[1] = target: T1, N-formyl peptide receptor 2 (Homo sapiens, UniProt P25090); test: Agonist activity at ALX/FPR2 in human THP1 cells harboring NF-kB-Luc assessed as inhibition of LPS-induced NFkB signalling activation by measuring reduction in IL-6 secretion pretreated for 30 mins followed by LPS stimulation for 24 hrs by electrochemiluminescence assay; assay type: cell-based; settings: read-out: IC50
T1 sequence (P25090 whole entry): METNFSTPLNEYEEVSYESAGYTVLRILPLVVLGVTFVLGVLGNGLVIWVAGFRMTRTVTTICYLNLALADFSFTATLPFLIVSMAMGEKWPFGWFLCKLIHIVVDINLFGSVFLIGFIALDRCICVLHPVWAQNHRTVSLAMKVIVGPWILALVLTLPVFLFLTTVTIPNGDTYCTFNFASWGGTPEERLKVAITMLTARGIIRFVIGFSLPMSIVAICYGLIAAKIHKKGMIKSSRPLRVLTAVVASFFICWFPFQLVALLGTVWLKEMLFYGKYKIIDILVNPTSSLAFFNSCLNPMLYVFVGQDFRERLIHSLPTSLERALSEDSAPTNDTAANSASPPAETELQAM

[2] = test system: HEK293; test: Induction of intracellular calcium accumulation in HEK293 cells at 0.01 nM to 100 nM by Fluo-4 dye based fluorescence spectrophotometric assay; assay type: functional, cell-based; settings: Homo sapiens
[3] = test system: THP-1; test: Cytotoxicity against human THP1 cells harboring NFkB-Luc assessed as LDH release at 10'9 M after 24 hrs by spectrophotometric method relative to control; assay type: cell-based; settings: thp-1, 24 h
[4] = species on record: Homo sapiens; test: Activation of Luc-fused NFkB (unknown origin) expressed in non-stimulated human THP1 cells assessed as relative luminescence unit at 10^-10 M after 24 hrs by luciferase reporter gene assay (reference value: 100%); assay type: cell-based
[5] = target: T1, N-formyl peptide receptor 2; test: Agonist activity at ALX/FPR2 in human THP1 cells harboring NF-kB-Luc assessed as inhibition of LPS-induced NFkB signalling activation by measuring reduction in IL-12p70 secretion pretreated for 30 mins followed by LPS stimulation for 24 hrs by electrochemiluminescence assay; assay type: cell-based; settings: read-out: IC50
[6] = target: T1, N-formyl peptide receptor 2; test: Agonist activity at ALX/FPR2 in human THP1 cells harboring NF-kB-Luc assessed as inhibition of LPS-induced NFkB signalling activation pretreated for 30 mins followed by LPS stimulation for 24 hrs by luciferase reporter gene assay; assay type: cell-based
[7] = test system: THP-1; test: Cytotoxicity against human THP1 cells harboring NFkB-Luc assessed as LDH release at 10'10 M after 24 hrs by spectrophotometric method relative to control; assay type: cell-based; settings: thp-1, 24 h
[8] = target: T1, N-formyl peptide receptor 2; test: Agonist activity at ALX/FPR2 in human THP1 cells harboring NF-kB-Luc assessed as inhibition of LPS-induced NFkB signalling activation by measuring reduction in IFNgamma secretion pretreated for 30 mins followed by LPS stimulation for 24 hrs by electrochemiluminescence assay; assay type: cell-based; settings: read-out: IC50
[9] = test system: THP-1; test: Cytotoxicity against human THP1 cells harboring NFkB-Luc assessed as LDH release at 10'11 M after 24 hrs by spectrophotometric method relative to control; assay type: cell-based; settings: thp-1, 24 h
[10] = test system: THP-1; test: Cytotoxicity against human THP1 cells harboring NFkB-Luc assessed as LDH release at 10'12 M after 24 hrs by spectrophotometric method relative to control; assay type: cell-based; settings: thp-1, 24 h
[11] = test system: THP-1; test: Cytotoxicity against human THP1 cells harboring NFkB-Luc assessed as LDH release at 10'8 M after 24 hrs by spectrophotometric method relative to control; assay type: cell-based; settings: thp-1, 24 h
[12] = test system: Mus musculus; test: Anti-inflammatory activity in zymosan-induced C57BL/6J mouse peritonitis model assessed as total cell count in peritoneal cavity at 150 ng, ip pretreated for 30 mins followed by zymosan treatment and redosing of test compound at 1 hr post zymosan addition and measured 4 hrs post zymosan addition by flow cytometry (reference value: 100%); assay type: functional
[13] = species on record: Homo sapiens; test: Activation of Luc-fused NFkB (unknown origin) expressed in non-stimulated human THP1 cells assessed as relative luminescence unit at 10^-11 M after 24 hrs by luciferase reporter gene assay (reference value: 100%); assay type: cell-based
[14] = species on record: Homo sapiens; test: Activation of Luc-fused NFkB (unknown origin) expressed in non-stimulated human THP1 cells assessed as relative luminescence unit at 10^-8 M after 24 hrs by luciferase reporter gene assay (reference value: 100%); assay type: cell-based
[15] = species on record: Homo sapiens; test: Activation of Luc-fused NFkB (unknown origin) expressed in non-stimulated human THP1 cells assessed as relative luminescence unit at 10^-7 M after 24 hrs by luciferase reporter gene assay (reference value: 100%); assay type: cell-based
[16] = test system: THP-1; test: Cytotoxicity against human THP1 cells harboring NFkB-Luc assessed as LDH release at 10'7 M after 24 hrs by spectrophotometric method relative to control; assay type: cell-based; settings: thp-1, 24 h
[17] = target: T1, N-formyl peptide receptor 2; test: Agonist activity at ALX/FPR2 in human THP1 cells harboring NF-kB-Luc assessed as inhibition of LPS-induced NFkB signalling activation by measuring reduction in IL-1beta secretion pretreated for 30 mins followed by LPS stimulation for 24 hrs by electrochemiluminescence assay; assay type: cell-based
[18] = species on record: Homo sapiens; test: Activation of Luc-fused NFkB (unknown origin) expressed in non-stimulated human THP1 cells assessed as relative luminescence unit at 10^-6 M after 24 hrs by luciferase reporter gene assay (reference value: 100%); assay type: cell-based
[19] = species on record: Homo sapiens; test: Activation of Luc-fused NFkB (unknown origin) expressed in non-stimulated human THP1 cells assessed as relative luminescence unit at 10^-9 M after 24 hrs by luciferase reporter gene assay (reference value: 100%); assay type: cell-based
[20] = target: T1, N-formyl peptide receptor 2; test: Agonist activity at ALX/FPR2 in human THP1 cells harboring NF-kB-Luc assessed as inhibition of LPS-induced NFkB signalling activation by measuring reduction in TNFalpha secretion pretreated for 30 mins followed by LPS stimulation for 24 hrs by electrochemiluminescence assay; assay type: cell-based; settings: read-out: IC50
[21] = test system: Mus musculus; test: Anti-inflammatory activity in zymosan-induced C57BL/6J mouse peritonitis model assessed as PMN leukocytes level in peritoneal cavity at 50 ng, ip pretreated for 30 mins followed by zymosan treatment and redosing of test compound at 1 hr post zymosan addition and measured 4 hrs post zymosan addition by flow cytometry (reference value: 100%); assay type: functional
[22] = test system: Mus musculus; test: Anti-inflammatory activity in zymosan-induced C57BL/6J mouse peritonitis model assessed as total cell count in peritoneal cavity at 50 ng, ip pretreated for 30 mins followed by zymosan treatment and redosing of test compound at 1 hr post zymosan addition and measured 4 hrs post zymosan addition by flow cytometry (reference value: 100%); assay type: functional
[23] = test system: Mus musculus; test: Anti-inflammatory activity in zymosan-induced C57BL/6J mouse peritonitis model assessed as PMN leukocytes level in peritoneal cavity at 150 ng, ip pretreated for 30 mins followed by zymosan treatment and redosing of test compound at 1 hr post zymosan addition and measured 4 hrs post zymosan addition by flow cytometry (reference value: 100%); assay type: functional
[24] = test system: THP-1; test: Cytotoxicity against human THP1 cells harboring NFkB-Luc assessed as LDH release at 10'6 M after 24 hrs by spectrophotometric method relative to control; assay type: cell-based; settings: thp-1, 24 h
[25] = species on record: Homo sapiens; test: Activation of Luc-fused NFkB (unknown origin) expressed in non-stimulated human THP1 cells assessed as relative luminescence unit at 10^-12 M after 24 hrs by luciferase reporter gene assay (reference value: 100%); assay type: cell-based
[26] = test system: HEK293; test: Induction of intracellular calcium accumulation in HEK293 cells at 2 nM by Fluo-4 dye based fluorescence spectrophotometric assay; assay type: functional, cell-based; settings: Homo sapiens
[27] = target: T2, N-formyl peptide receptor 2 (Homo sapiens) (UniProt P25090); test: Agonist activity at ALX/FPR2 (unknown origin) expressed in HEK293 cells co-expressing Galphaq assessed as induction of intracellular calcium accumulation at 2 nM by Fluo-4 dye based fluorescence spectrophotometric assay; assay type: functional, cell-based
T2 sequence (whole entry): T1 sequence (P25090 whole entry)

[28] = target: T2, N-formyl peptide receptor 2 (Homo sapiens); test: Agonist activity at ALX/FPR2 in human THP1 cells harboring NF-kB-Luc assessed as inhibition of LPS-induced NFkB signalling activation by measuring IFNgamma secretion at 10^-6 M pretreated for 30 mins followed by LPS stimulation for 24 hrs by electrochemiluminescence assay (reference value: 100%); assay type: cell-based; set-up: scale not given: the % may be the effect or the level left
[29] = target: T2, N-formyl peptide receptor 2 (Homo sapiens); test: Agonist activity at ALX/FPR2 in human THP1 cells harboring NF-kB-Luc assessed as inhibition of LPS-induced NFkB signalling activation by measuring IL-1beta secretion at 10^-6 M pretreated for 30 mins followed by LPS stimulation for 24 hrs by electrochemiluminescence assay (reference value: 100%); assay type: cell-based; set-up: scale not given: the % may be the effect or the level left
[30] = target: T2, N-formyl peptide receptor 2 (Homo sapiens); test: Agonist activity at ALX/FPR2 in human THP1 cells harboring NF-kB-Luc assessed as inhibition of LPS-induced NFkB signalling activation by measuring IL-12p70 secretion at 10^-6 M pretreated for 30 mins followed by LPS stimulation for 24 hrs by electrochemiluminescence assay (reference value: 100%); assay type: cell-based; set-up: scale not given: the % may be the effect or the level left
[31] = test system: Mus musculus; test: Anti-inflammatory activity in zymosan-induced C57BL/6J mouse peritonitis model assessed as PMN leukocytes level in peritoneal cavity at 25 ug, ip pretreated for 1 hr followed by zymosan treatment and redosing of test compound at 1 hr post zymosan addition and measured 4 hrs post zymosan addition by flow cytometry (reference value: 100%); assay type: functional
[32] = target: T2, N-formyl peptide receptor 2 (Homo sapiens); test: Agonist activity at ALX/FPR2 in human THP1 cells harboring NF-kB-Luc assessed as inhibition of LPS-induced NFkB signalling activation by measuring TNFalpha secretion at 10^-6 M pretreated for 30 mins followed by LPS stimulation for 24 hrs by electrochemiluminescence assay (reference value: 100%); assay type: cell-based; set-up: scale not given: the % may be the effect or the level left
[33] = target: T2, N-formyl peptide receptor 2 (Homo sapiens); test: Agonist activity at ALX/FPR2 in human THP1 cells harboring NF-kB-Luc assessed as inhibition of LPS-induced NFkB signalling activation by measuring IL-6 secretion at 10^-6 M pretreated for 30 mins followed by LPS stimulation for 24 hrs by electrochemiluminescence assay (reference value: 100%); assay type: cell-based; set-up: scale not given: the % may be the effect or the level left
[34] = test system: Mus musculus; test: Anti-inflammatory activity in zymosan-induced C57BL/6J mouse peritonitis model assessed as total cell count in peritoneal cavity at 25 ug, ip pretreated for 1 hr followed by zymosan treatment and redosing of test compound at 1 hr post zymosan addition and measured 4 hrs post zymosan addition by flow cytometry (reference value: 100%); assay type: functional
[35] = target: T2, N-formyl peptide receptor 2 (Homo sapiens); test: Agonist activity at ALX/FPR2 in human THP1 cells harboring NF-kB-Luc assessed as inhibition of LPS-induced NFkB signalling activation by measuring NF-kB activation level at 10^-6 M pretreated for 30 mins followed by LPS stimulation for 24 hrs by luciferase reporter gene assay; assay type: cell-based; set-up: scale not given: the % may be the effect or the level left

SMILES: CCCCC[C@@H](O)c1c(/C=C/[C@@H](O)[C@@H](O)CCCC(=O)OC)nc(C)n1C
- IC50 [1]: 76.6 nM
- Activity [2]: inactive
- fold change (FC) [3]: 0.8
- Activity [4]: 2.3%
- IC50 [5]: 5.1 nM
- IC50 [6]: 1 nM
- fold change (FC) [7]: 0.9
- IC50 [8]: 4.4 nM
- fold change (FC) [9]: 0.9
- fold change (FC) [10]: 1
- fold change (FC) [11]: 0.9
- Emax [12]: 30.4%
- Activity [13]: 2.1%
- Activity [14]: 2.1%
- Activity [15]: 2.5%
- fold change (FC) [16]: 0.9
- IC50 [17]: Not Active
- Activity [18]: 2%
- Activity [19]: 2.1%
- IC50 [20]: 5.6 nM
- Emax [21]: 51.6%
- Emax [22]: 57.9%
- Emax [23]: 32.5%
- fold change (FC) [24]: 1.1
- Activity [25]: 2%

SMILES: CSCC[C@H](NC(=O)[C@@H](NC(=O)[C@H](CCSC)NC(=O)[C@H](Cc1ccc(O)cc1)NC(=O)[C@H](CCCCN)NC(=O)[C@@H](N)Cc1c[nH]c2ccccc12)C(C)C)C(=O)O
- Activity [26]: inactive
- Activity [27]: Active

SMILES: C[C@@H]1C[C@H]2[C@@H]3CCC4=CC(=O)C=C[C@]4(C)[C@@]3(F)[C@@H](O)C[C@]2(C)[C@@]1(O)C(=O)CO [DEXAMETHASONE]
- Activity [28]: 45.1%
- Activity [29]: 13.6%
- Activity [30]: 62.6%
- Emax [31]: 51.5%
- Activity [32]: 58.1%
- Activity [33]: 1.5%
- Activity [18]: 1.6%
- Emax [34]: 46.7%
- Activity [35]: 53.2%
- fold change (FC) [24]: 1.3
